Reference: publication PMC9270327 (Communications Biology, 2022)
Structures can show the parent of a compound that is named as a salt. Where two headings read alike, the source gives them in different places.

How the values were obtained:
TMPRSS2 [1] = molecular target: T1, TMPRSS2 (Homo sapiens, UniProt O15393); conditions: inhibitor 1665 nM
Protocol: Negative ctrl: no inhibitor, positive ctrl: inhibitor in assay buffer. d Inhibitory constants Ki as determined from (a–c). Shown are the means ± SD of n = 1 experiment performed in triplicates. No inh. no inhibition.
(§1) The activity of the compounds against the recombinant human enzymes was determined in enzyme inhibition assays. […] The measurements were performed on a Tecan infinite® M1000 and the fluorescence intensity was measured by exciting the AMC fluorophore at 380 nm wavelength and recording emission at 460 nm wavelength. […] Fluorescence intensities and absorption were measured every 2 min for 2 h or as endpoint after 2 h. […] To determine the IC50 values, the concentration-response data were plotted with the program GraphPad prism version 8.4.2 (San Diego, California) and a nonlinear regression fit with the equation [Inhibitor] vs. normalized response was applied. The inhibitory constant Ki was calculated from the IC50 values using the Cheng–Prusoff equation (Ki = IC50/[S]/KM) for competitive reversible inhibitors[66].
(§2) The stability of the inhibitors was measured according to a modified procedure from ref. [67]. […] At indicated timepoints, 100 µL samples were taken and mixed with 200 µL of ethanol to precipitate proteins. […] The supernatant was aspirated and analyzed using analytical HPLC. The residual inhibitory constants Ki after incubation was assessed by mixing serial dilutions of the inhibitor with recombinant TMPRSS2 as described above.

TMPRSS2 [2] = molecular target: T1, TMPRSS2; format: biochemical; parameters: purchased Creative BioMart (New York, USA) or LSBio (Seattle, USA); conditions: normalized, 0 nM = 100
From the text: Recombinant human TMPRSS2 was purchased from Creative BioMart (New York, USA) or LSBio (Seattle, USA), factor Xa was obtained from Bio-Techne GmbH (Wiesbaden, Germany). Recombinant human thrombin and matriptase protein were purchased from R&D Systems (Minneapolis, MN, USA).

TMPRSS2 [3] = molecular target: T1, TMPRSS2; assay: Plasma stability: residual TMPRSS2 inhibition after incubation in human plasma
Protocol: as §1, §2
Shown are the means ± SD of n=1 experiment performed in triplicates.

T1 sequence (O15393 whole entry): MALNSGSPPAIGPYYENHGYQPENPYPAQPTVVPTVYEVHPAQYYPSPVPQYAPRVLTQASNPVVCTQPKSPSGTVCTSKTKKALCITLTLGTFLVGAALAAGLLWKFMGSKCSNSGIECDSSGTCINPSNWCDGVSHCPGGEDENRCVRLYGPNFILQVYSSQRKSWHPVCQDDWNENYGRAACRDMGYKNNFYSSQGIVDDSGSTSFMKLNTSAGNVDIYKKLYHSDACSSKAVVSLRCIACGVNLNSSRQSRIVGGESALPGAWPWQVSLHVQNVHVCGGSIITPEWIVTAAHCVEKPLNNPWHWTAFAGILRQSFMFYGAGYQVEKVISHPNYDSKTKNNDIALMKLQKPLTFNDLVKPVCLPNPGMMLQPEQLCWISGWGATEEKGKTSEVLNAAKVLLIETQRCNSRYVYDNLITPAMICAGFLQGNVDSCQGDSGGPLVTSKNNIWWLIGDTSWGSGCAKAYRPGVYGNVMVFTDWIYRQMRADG

SMILES: CN(C)C(=O)COC(=O)Cc1ccc(OC(=O)c2ccc(NC(=N)N)cc2)cc1 [CM, camostat mesylate, reference compound]
- TMPRSS2 activity, Mean (0 nM = 100) (TMPRSS2 [1]; 24 h in serum): 8.1597
- TMPRSS2 activity, Mean (0 nM = 100) (TMPRSS2 [1]; 10 d in serum): 96.3530
- TMPRSS2 activity, Mean (0 nM = 100) (TMPRSS2 [1]; positive ctrl): 2.6461
- TMPRSS2 activity, Mean (Fig. 2a) (TMPRSS2 [2]; 0.05 nM): 101.705
- TMPRSS2 activity, Mean (Fig. 2a) (TMPRSS2 [2]; 0.5 nM): 66.4773
- TMPRSS2 activity, Mean (Fig. 2a) (TMPRSS2 [2]; 5 nM): 16.1932
- TMPRSS2 activity, Mean (Fig. 2a) (TMPRSS2 [2]; 50 nM): 0.2841
- TMPRSS2 activity, Mean (Fig. 2a) (TMPRSS2 [2]; 500 nM): 0.5682
- TMPRSS2 activity, Mean (Fig. 2a) (TMPRSS2 [2]; 5000 nM): -0.142
- TMPRSS2 activity, Mean (Fig. 2a) (TMPRSS2 [2]; 50000 nM): 0.2841
- TMPRSS2 activity, Mean (Fig. 2a) (TMPRSS2 [2]; 500000 nM): -0.4261
- TMPRSS2 activity, Mean (0 nM = 100) (TMPRSS2 [3]; inhibitor 0.0167 nM, 0 min in plasma): 112.439
- TMPRSS2 activity, Mean (0 nM = 100) (TMPRSS2 [3]; inhibitor 0.0167 nM, 30 min in plasma): 99.4869
- TMPRSS2 activity, Mean (0 nM = 100) (TMPRSS2 [3]; inhibitor 0.0167 nM, 60 min in plasma): 94.1158
- TMPRSS2 activity, Mean (0 nM = 100) (TMPRSS2 [3]; inhibitor 0.0167 nM, 120 min in plasma): 100.839
- TMPRSS2 activity, Mean (0 nM = 100) (TMPRSS2 [3]; inhibitor 0.0167 nM, 24 h in plasma): 102.049
- TMPRSS2 activity, Mean (0 nM = 100) (TMPRSS2 [3]; inhibitor 0.0167 nM, 10 d in plasma): 98.7798
- TMPRSS2 activity, Mean (0 nM = 100) (TMPRSS2 [3]; inhibitor 0.0167 nM, positive ctrl): 95.8208
- TMPRSS2 activity, Mean (0 nM = 100) (TMPRSS2 [3]; inhibitor 0.167 nM, 0 min in plasma): 118.068
- TMPRSS2 activity, Mean (0 nM = 100) (TMPRSS2 [3]; inhibitor 0.167 nM, 30 min in plasma): 99.3363
- TMPRSS2 activity, Mean (0 nM = 100) (TMPRSS2 [3]; inhibitor 0.167 nM, 60 min in plasma): 90.9592
- TMPRSS2 activity, Mean (0 nM = 100) (TMPRSS2 [3]; inhibitor 0.167 nM, 120 min in plasma): 99.9584
- TMPRSS2 activity, Mean (0 nM = 100) (TMPRSS2 [3]; inhibitor 0.167 nM, 24 h in plasma): 103.994
- TMPRSS2 activity, Mean (0 nM = 100) (TMPRSS2 [3]; inhibitor 0.167 nM, 10 d in plasma): 99.2067
- TMPRSS2 activity, Mean (0 nM = 100) (TMPRSS2 [3]; inhibitor 0.167 nM, positive ctrl): 72.6812
- TMPRSS2 activity, Mean (0 nM = 100) (TMPRSS2 [3]; inhibitor 1.665 nM, 0 min in plasma): 103.981
- TMPRSS2 activity, Mean (0 nM = 100) (TMPRSS2 [3]; inhibitor 1.665 nM, 30 min in plasma): 95.5323
- TMPRSS2 activity, Mean (0 nM = 100) (TMPRSS2 [3]; inhibitor 1.665 nM, 60 min in plasma): 85.541
- TMPRSS2 activity, Mean (0 nM = 100) (TMPRSS2 [3]; inhibitor 1.665 nM, 120 min in plasma): 96.8319
- TMPRSS2 activity, Mean (0 nM = 100) (TMPRSS2 [3]; inhibitor 1.665 nM, 24 h in plasma): 101.166
- TMPRSS2 activity, Mean (0 nM = 100) (TMPRSS2 [3]; inhibitor 1.665 nM, 10 d in plasma): 96.8623
- TMPRSS2 activity, Mean (0 nM = 100) (TMPRSS2 [3]; inhibitor 1.665 nM, positive ctrl): 21.364
- TMPRSS2 activity, Mean (0 nM = 100) (TMPRSS2 [3]; inhibitor 16.65 nM, 0 min in plasma): 71.7511
- TMPRSS2 activity, Mean (0 nM = 100) (TMPRSS2 [3]; inhibitor 16.65 nM, 30 min in plasma): 65.1615
- TMPRSS2 activity, Mean (0 nM = 100) (TMPRSS2 [3]; inhibitor 16.65 nM, 60 min in plasma): 67.6129
- TMPRSS2 activity, Mean (0 nM = 100) (TMPRSS2 [3]; inhibitor 16.65 nM, 120 min in plasma): 74.7383
- TMPRSS2 activity, Mean (0 nM = 100) (TMPRSS2 [3]; inhibitor 16.65 nM, 24 h in plasma): 100.72
- TMPRSS2 activity, Mean (0 nM = 100) (TMPRSS2 [3]; inhibitor 16.65 nM, 10 d in plasma): 95.3646
- TMPRSS2 activity, Mean (0 nM = 100) (TMPRSS2 [3]; inhibitor 16.65 nM, positive ctrl): 5.9227
- TMPRSS2 activity, Mean (0 nM = 100) (TMPRSS2 [3]; inhibitor 166.5 nM, 0 min in plasma): 5.478
- TMPRSS2 activity, Mean (0 nM = 100) (TMPRSS2 [3]; inhibitor 166.5 nM, 30 min in plasma): 3.6809
- TMPRSS2 activity, Mean (0 nM = 100) (TMPRSS2 [3]; inhibitor 166.5 nM, 60 min in plasma): 3.225
- TMPRSS2 activity, Mean (0 nM = 100) (TMPRSS2 [3]; inhibitor 166.5 nM, 120 min in plasma): 7.418
- TMPRSS2 activity, Mean (0 nM = 100) (TMPRSS2 [3]; inhibitor 166.5 nM, 24 h in plasma): 28.8196
- TMPRSS2 activity, Mean (0 nM = 100) (TMPRSS2 [3]; inhibitor 166.5 nM, 10 d in plasma): 97.9296
- TMPRSS2 activity, Mean (0 nM = 100) (TMPRSS2 [3]; inhibitor 166.5 nM, positive ctrl): 2.192
- TMPRSS2 activity, Mean (0 nM = 100) (TMPRSS2 [3]; inhibitor 1665 nM, 0 min in plasma): 4.824
- TMPRSS2 activity, Mean (0 nM = 100) (TMPRSS2 [3]; inhibitor 1665 nM, 30 min in plasma): 0.6431
- TMPRSS2 activity, Mean (0 nM = 100) (TMPRSS2 [3]; inhibitor 1665 nM, 60 min in plasma): 1.811
- TMPRSS2 activity, Mean (0 nM = 100) (TMPRSS2 [3]; inhibitor 1665 nM, 120 min in plasma): 6.253
- TMPRSS2 activity, Mean (0 nM = 100) (TMPRSS2 [3]; inhibitor 1665 nM, 24 h in plasma): 5.605
- TMPRSS2 activity, Mean (0 nM = 100) (TMPRSS2 [3]; inhibitor 1665 nM, 10 d in plasma): 88.1928
- TMPRSS2 activity, Mean (0 nM = 100) (TMPRSS2 [3]; inhibitor 1665 nM, positive ctrl): 0.4038
